From US4387059A, “Ureylenebis substituted (or unsubstituted) phenylene-carbonyl (or sulfonyl)-imino-1,3,5 or 6-naphthalene-trisulfonic acids and salts” (American Cyanamid Company, priority 1981, dated 1983)
Structures can show the parent of a compound that is named as a salt.

Tests used:
[1] = test system: late components of human complement (C3-C9); assay: Test Code 035 (C3-C9 inhibitor): lysis of EAC 142 by late components of human complement; format: cell-based; settings: serial twofold dilution assay, higher well number indicates higher activity
From the text: (§1) An active inhibitor protects C2 from C1 and C4; (ii) Test Code 035 (C3-C9 inhibitor)--This test determines the ability of the late components of human complement (C3-C9) to lyse EAC 142 in the presence of appropriate dilutions of the test compound. An active inhibitor protects EAC 142 from lysis by human C3-C9; (iii) Test Code 036 (C-Shunt inhibitor)--In this test human erythrocytes rendered fragile are lysed in autologous serum via the shunt pathway activated by cobra venom factor in the presence of appropriate dilutions of the test compound. Inhibition of the shunt pathway results in failure of lysis; (iv) Cap 50 Test--Here, appropriate amounts of the test compound are added to a pool of guinea pig serum in vitro, after which the complement level is determined in undiluted serum by the serum capillary tube assay of U.S. Pat. No. 3,876,376. The concentration of compound inhibiting 50% is reported; and (v) Guinea Pig Intraperitoneal Test (GPIP)--Guinea pigs weighing about 300 g are dosed intraperitoneally (i.p.) with 200 mg/kg of the test compound dissolved in saline and adjusted to pH 7-8. […] Percent inhibition is calculated by comparison with simultaneous controls. […]

human C1 = assay: Test Code 026 (C1 inhibitor): ability of activated human C1 to destroy fluid phase human C2 in the presence of C4; format: biochemical; settings: serial twofold dilution assay, higher well number indicates higher activity
From the text: as §1

complement = assay: in vivo complement inhibition in guinea pig (GPIP test), capillary complement assay of sera; settings: Intravenous, i.p. 200 mg/kg
shunt pathway = assay: Test Code 036 (C-Shunt inhibitor): lysis of fragile human erythrocytes in autologous serum via shunt pathway activated by cobra venom factor; format: cell-based; settings: serial twofold dilution assay, higher well number indicates higher activity
From the text: as §1

complement system = settings: Br. J. Exp. Pathol. 33: 327 (1952); cited from earlier work
[2] = literature reports; cited from earlier work
[3] = test system: total hemolytic complement activity (human serum); settings: in vitro and in vivo, Pathol. Biol. 25 (1977); cited from earlier work

O=C(Nc1ccc(C(=O)Nc2ccc(C(=O)Nc3ccc(C(=O)Nc4cc(S(=O)(=O)O)cc5cc(S(=O)(=O)O)cc(S(=O)(=O)O)c45)c(S(=O)(=O)O)c3)c(S(=O)(=O)O)c2)c(S(=O)(=O)O)c1)Nc1ccc(C(=O)Nc2ccc(C(=O)Nc3ccc(C(=O)Nc4cc(S(=O)(=O)O)cc5cc(S(=O)(=O)O)cc(S(=O)(=O)O)c45)c(S(=O)(=O)O)c3)c(S(=O)(=O)O)c2)c(S(=O)(=O)O)c1 [8,8'-Ureylenebis[tris[(2-sulfo-p-phenylenecarbonyl)imino]]-di-1,3,6-naphthalenetrisulfonic acid, dodecasodium salt]
in vitro Activity C-Late 035* Wells [1]: +2 Wells | in vitro Activity C1 026* Wells (human C1): +5 Wells | in vivo Activity (Guinea Pig) % Inhibition (complement; Time 2 Minutes): 95% | in vivo Activity (Guinea Pig) % Inhibition (complement; Time 30 Minutes): 54% | in vivo Activity (Guinea Pig) % Inhibition (complement; Time 120 Minutes): 14%

O=C(Nc1cccc(S(=O)(=O)Nc2cccc(S(=O)(=O)Nc3cccc(S(=O)(=O)Nc4cc(S(=O)(=O)O)cc5cc(S(=O)(=O)O)cc(S(=O)(=O)O)c45)c3)c2)c1)Nc1cccc(S(=O)(=O)Nc2cccc(S(=O)(=O)Nc3cccc(S(=O)(=O)Nc4cc(S(=O)(=O)O)cc5cc(S(=O)(=O)O)cc(S(=O)(=O)O)c45)c3)c2)c1 [8,8'-[Ureylenebis[[[[[[[(m-phenylenesulfonyl)imino]-m-phenylene]sulfonyl]imino]-m-phenylene]sulfonyl]-imino]]-1,3,6-naphthalenetrisulfonic acid, hexasodium salt]
in vitro Activity C-Late 035* Wells [1]: +4 Wells | in vitro Activity C1 026* Wells (human C1): +4 Wells | in vitro Activity C-Shunt Inhibition 036* Wells (shunt pathway): +1 Wells

Nc1ccc2cc(S(=O)(=O)[O-])cc(O)c2c1N=Nc1ccc(NC(=O)Nc2ccc(N=Nc3c(N)ccc4cc(S(=O)(=O)[O-])cc(O)c34)c(S(=O)(=O)[O-])c2)cc1S(=O)(=O)[O-].[Na+].[Na+].[Na+].[Na+] [chlorazol fast pink, 3,3'-ureylenebis[6-(2-amino-8-hydroxy-6-sulfo-1-naphthylazo)benzenesulfonic acid], tetrasodium salt]
anti-complementary effect (complement system): anti-complementary effect

NCCCCCC(=O)O [epsilon-aminocaproic acid]
treatment of hereditary angioneurotic edema [2]: used with success in the treatment of hereditary angioneurotic edema

NC[C@H]1CC[C@H](C(=O)O)CC1 [tranexamic acid]
treatment of hereditary angioneurotic edema [2]: used with success in the treatment of hereditary angioneurotic edema

heparin
anti-complementary effect (complement system): anti-complementary effect

pentosanpolysulfoester
anticomplementary activity (reduction in total hemolytic complement activity) [3]: anticomplementary activity on human serum, both in vitro and in vivo
